Source: the Kinase Knowledgebase extract (Sharma et al. 2016)

Assays:
MAPK14 (human) [1] = target: MAPK14 (human) (UniProt Q16539); test: Inhibition of MAPK14 Kinase Activity by EGFRP Assay
MAPK14 (human) [2] = target: MAPK14 (human) (UniProt Q16539); test: Inhibition of LPS Stimulated TNF Production by U937 Cells; conditions: for inhibition: concentration not given here
MAPK14 (human) [3] = target: MAPK14 (human) (UniProt Q16539); test: Inhibition of MAPK14 Kinase Activity by PHAS-I Assay; conditions: for inhibition: concentration not given here

MAPK14 (human), sequence (Q16539 whole entry, looked up): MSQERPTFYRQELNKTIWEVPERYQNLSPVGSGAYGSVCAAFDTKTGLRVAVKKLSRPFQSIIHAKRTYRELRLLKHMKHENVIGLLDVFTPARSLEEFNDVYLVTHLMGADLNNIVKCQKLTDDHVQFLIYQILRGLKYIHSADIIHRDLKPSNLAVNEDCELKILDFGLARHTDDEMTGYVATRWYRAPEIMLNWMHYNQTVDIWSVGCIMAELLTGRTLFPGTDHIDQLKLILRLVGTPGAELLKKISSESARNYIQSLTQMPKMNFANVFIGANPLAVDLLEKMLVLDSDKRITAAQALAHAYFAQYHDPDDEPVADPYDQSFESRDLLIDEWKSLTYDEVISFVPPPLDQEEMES

| IC50 (MAPK14 (human) [1]) | IC50 (MAPK14 (human) [2]) | inhibition (MAPK14 (human) [2]) | IC50 (MAPK14 (human) [3]) | inhibition (MAPK14 (human) [3]) | Compound |
| --- | --- | --- | --- | --- | --- |
| – | – | 73% | 59 nM | – | CC(=O)Nc1ccc(S(=O)(=O)N[C@@H](C)c2[nH]nc(-c3ccc(F)cc3)c2-c2ccncc2)cc1 |
| – | 1830 nM | – | – | 72% | CC(C)=CC(=O)NCCCc1[nH]nc(-c2ccc(F)cc2)c1-c1ccncc1 |
| – | – | 31% | – | 63% | COc1cccc(CC(=O)NCCc2[nH]nc(-c3ccc(F)cc3)c2-c2ccncc2)c1 |
| – | – | 66% | – | 69% | CC(C)(C)C(=O)NCCc1[nH]nc(-c2ccc(F)cc2)c1-c1ccncc1 |
| – | – | 35% | – | 27% | O=C(NCc1[nH]nc(-c2ccc(F)cc2)c1-c1ccncc1)Nc1ccc(I)cc1 |
| – | 10000 nM | – | – | 94% | Cc1ccc(S(=O)(=O)N[C@H](CCc2ccccc2)C(=O)NCc2[nH]nc(-c3ccc(F)cc3)c2-c2ccncc2)cc1 |
| – | > 1000 nM | – | – | 51% | CCC(=O)C(=O)CNC(=O)NCc1[nH]nc(-c2ccc(F)cc2)c1-c1ccncc1 |
| – | – | 37% | – | 85% | C[C@H](NC(=O)NCCCc1[nH]nc(-c2ccc(F)cc2)c1-c1ccncc1)c1ccccc1 |
| – | 520 nM | – | – | 62% | COc1ccccc1NC(=O)NCCc1[nH]nc(-c2ccc(F)cc2)c1-c1ccncc1 |
| – | – | 45% | – | 77% | O=C(NCCc1[nH]nc(-c2ccc(F)cc2)c1-c1ccncc1)c1ccno1 |
| – | – | 2% | – | 85% | CC(NC(=O)NCCc1[nH]nc(-c2ccc(F)cc2)c1-c1ccncc1)c1cccc2ccccc12 (stereo not given) |
| – | – | 62% | – | 65% | O=C(NCCCc1[nH]nc(-c2ccc(F)cc2)c1-c1ccncc1)c1ccccc1C(F)(F)F |

Continued, compound first:

| Compound | IC50 (MAPK14 (human) [1]) | IC50 (MAPK14 (human) [2]) | inhibition (MAPK14 (human) [2]) | IC50 (MAPK14 (human) [3]) | inhibition (MAPK14 (human) [3]) |
| --- | --- | --- | --- | --- | --- |
| Fc1ccc(-c2n[nH]cc2-c2ccnc(NCCn3ccnc3)c2)cc1 | < 10 nM | 7.4 nM | – | – | – |
| Cc1cc(-c2cn(C)nc2-c2cccc(Cl)c2)ccn1.Cc1cc(-c2cnn(C)c2-c2cccc(Cl)c2)ccn1 | 44 nM | – | – | – | – |
| Cc1cccc(-c2c(-c3ccnc(C)c3)cnn2C)c1 | 104 nM | – | – | – | – |
| O=C(NCCc1[nH]nc(-c2ccc(F)cc2)c1-c1ccncc1)N1CCOCC1 | – | – | 34% | – | 86% |
| Cn1cc(-c2ccncc2)c(-c2cccc(Cl)c2)n1.Cn1ncc(-c2ccncc2)c1-c1cccc(Cl)c1 | 103 nM | – | – | – | – |
| Cc1cccc(C)c1NC(=O)Cn1nc(-c2ccc(F)cc2)c(-c2ccncc2)c1C | – | – | 18% | – | 83% |
| Cc1c(-c2ccncc2)c(-c2ccc(F)cc2)nn1CC(=O)N(C)CCn1ccnc1 | – | > 10000 nM | – | – | 43% |
| CCN(Cc1ccncc1)C(=O)Cn1nc(-c2ccc(F)cc2)c(-c2ccncc2)c1C | – | – | 2% | – | 68% |
| C[C@H](NS(=O)(=O)c1cc(Cl)cc(Cl)c1O)c1[nH]nc(-c2ccc(F)cc2)c1-c1ccncc1 | – | – | 76% | 170 nM | – |
| COC(=O)[C@H](CSCc1ccccc1)NC(=O)Cn1nc(-c2ccc(F)cc2)c(-c2ccncc2)c1C | – | > 10000 nM | – | – | 84% |
| CC[C@H](C)NC(=O)Cn1nc(-c2ccc(F)cc2)c(-c2ccncc2)c1C | – | – | 38% | – | 76% |
| COc1ccc(CN(CCc2ccccc2)C(=O)Cn2nc(-c3ccc(F)cc3)c(-c3ccncc3)c2C)cc1 | – | > 10000 nM | – | – | 75% |
